Values after ≈ are worked out from the molar mass of the structure shown. Values joined by “and” are separate entries in the source; they are usually repeats but may differ in a detail not shown here. Equal values may be shown once. Read-outs that look alike come from different tables or passages of the source.
Legend:
Mtb H37Rv [1] = assay: microbe, parasite or virus in culture; assay type: cell-based, Mycobacterium tuberculosis; conditions: for MIC: Mycobacterium tuberculosis, H37RV
Mtb strain H37Rv = assay: MIC against Mtb H37Rv under various media/carbon sources; assay type: cell-based; conditions: Mycobacterium tuberculosis
[2] = system: cell wall responsive iniBAC promoter (piniB-LUX reporter strain); assay type: cell-based, Mycobacterium tuberculosis
[3] = system: DNA damage responsive recA and radA reporters; assay type: cell-based, Mycobacterium tuberculosis
J774 cells = assay: Murine macrophage cytotoxicity (luminescence-based); conditions: Mus musculus; murine macrophage cell line J774, 24 h; read-out: IC50 against J774 cells
[4] = system: intramacrophage Mtb H37Rv; assay: Ex vivo efficacy against intracellular Mtb in J774 macrophages; assay type: cell-based, Mycobacterium tuberculosis
Mtb H37Rv [5] = assay: MIC under iron-depleted (DFO) or iron-replete (FeCl3) conditions; assay type: cell-based, Mycobacterium tuberculosis
Mtb H37Rv WT = assay: microbe, parasite or virus in culture; assay type: cell-based; conditions: Mycobacterium tuberculosis
[6] = Microsomal stability, mouse; assay type: in vitro ADME; conditions: liver microsomes of female mouse, read-out: % Remaining after 2 h incubation Mouse
Protocol: (§1) % Remaining after 2 h incubation
(§2) Compound Chemical Structure
(§3) Table S1. Microsomal stability of some pyrazolo[1,5-a]pyrimidin-7(4H)-one derivatives
(§4) Microsomal stability was tested in microsomes from liver of female mouse (M9566 from Sigma-Aldrich)a or microsomes
(§5) from human liver (M0317 from Sigma-Aldrich)b.

[7] = Microsomal stability, human; assay type: in vitro ADME; conditions: human liver microsomes, read-out: % Remaining after 2 h incubation Human
Protocol: as §1, §2, §3, §4, §5

in vitro = conditions: human, 24 h
iron uptake of Mtb H37Rv = assay: 55Fe iron uptake by Mtb; assay type: cell-based, Mycobacterium tuberculosis; conditions: 55Fe-labelled medium; 1 at 10 μM, DFO at 39 μM
[8] = pH 6, read-out: MIC nitrate/butyrate
[9] = Cytotoxicity (IC50) Galactose, HepG2 cells in DMEM/10% FBS with galactose
[10] = Cytotoxicity (IC50) Glucose, HepG2 cells in DMEM/10% FBS supplemented with glucose

SMILES	improvement in MIC compared to the initial hit 1 (Mtb H37Rv [1]) [fold]	MIC (Mtb H37Rv [1]; read-out: MIC in 7H9 ADC) [µM]	MIC (Mtb H37Rv [1]; read-out: MIC in 7H9 GCas) [µM]	MIC (Mtb strain H37Rv; GAST/Fe, read-out: MIC GAST) [µM]	MIC (Mtb strain H37Rv; [8]) [µM]	MIC (Mtb strain H37Rv; read-out: MIC 7H9) [µM]	MIC (Mtb strain H37Rv; read-out: MIC Chol) [µM]	MIC (Mtb strain H37Rv; read-out: MIC GBSA/DBSA) [µM]	reporter gene assay cell wall [2]	reporter gene assay DNA damage [3]	IC50 (J774 cells) [µM]	increase in potency under iron-depleted conditions (MIC ratio) (Mtb H37Rv [5]) [fold]	MIC (Mtb H37Rv WT) [µM]	remaining at 2 h [6] [%]	remaining at 2 h [7] [%]	IC50 (in vitro; [9]) [µM]	IC50 (in vitro; [10]) [µM]	effect on iron uptake (iron uptake of Mtb H37Rv)	further results
Cc1nn2c(=O)cc(-c3ccc(F)c(F)c3)[nH]c2c1-c1ccccc1 [Compound P19, 5-(3,4-Difluorophenyl)-2-methyl-3-phenylpyrazolo[1,5-a]pyrimidin-7(4H)-one]	5	2.73 (≈ 0.921 µg/mL)	1.56 (≈ 0.526 µg/mL)	1.2 (≈ 0.405 µg/mL)	1.56 (≈ 0.526 µg/mL)	3.13 (≈ 1.06 µg/mL)	3.13 (≈ 1.06 µg/mL)	3.13 (≈ 1.06 µg/mL)	no	no	29.6 ± 1.2	≤ 2	0.78 (≈ 0.263 µg/mL)	66	77	58.9	> 100		reduction of bacterial burden [4]: ~0.5 logs
Cc1nn2c(=O)cc(-c3ccccc3)[nH]c2c1-c1ccccc1 [Compound 1, 2-Methyl-3,5-diphenylpyrazolo[1,5-a]pyrimidin-7(4H)-one]		12.5 (≈ 3.77 µg/mL)	3.12 (≈ 0.94 µg/mL)	2.3 (≈ 0.693 µg/mL)	12.5 (≈ 3.77 µg/mL)	12.5 (≈ 3.77 µg/mL)	9.4 (≈ 2.83 µg/mL)	12.5 (≈ 3.77 µg/mL)	no	no			1.2 (≈ 0.362 µg/mL)	61	66	> 100	> 100	did not inhibit iron uptake	
Cc1nn2c(=O)cc(-c3ccc(F)c(F)c3)[nH]c2c1-c1ccc(Cl)cc1 [Compound P25, 3-(4-Chlorophenyl)-5-(3,4-difluorophenyl)-2-methylpyrazolo[1,5-a]pyrimidin-7(4H)-one]	8	1.95 (≈ 0.725 µg/mL)	3.12 (≈ 1.16 µg/mL)								20.2 ± 0.8					52.6	94.3		reduction of bacterial counts [4]: 1.5 orders of magnitude and 2 orders of magnitude
Cc1nn2c(=O)cc(-c3ccc(Cl)c(Cl)c3)[nH]c2c1-c1ccc(F)cc1 [Compound P24, 5-(3,4-Dichlorophenyl)-3-(4-fluorophenyl)-2-methylpyrazolo[1,5-a]pyrimidin-7(4H)-one]	8	2.34 (≈ 0.908 µg/mL)	3.12 (≈ 1.21 µg/mL)								22.5 ± 2.1	≤ 2	1.56 (≈ 0.606 µg/mL)			38.7	> 100		
CC(=O)N(O)CCCCCNC(=O)CCC(=O)N(O)CCCCCNC(=O)CCC(=O)N(O)CCCCCN [DFO, desferrioxamine, reference compound]																		completely inhibited uptake	MIC (Mtb H37Rv [5]; Mycobacterium tuberculosis, H37RV, MIC of the iron-modulating additive itself): 250 µM

From article PMC7887755, “Structure–Activity Relationships of Pyrazolo[1,5-a]pyrimidin-7(4H)-ones as Antitubercular Agents” (ACS Infectious Diseases, 2021)
